For one experiment, the target named is T1, human purified αVβ5 (Homo sapiens, UniProt P06756+P18084).
T1 construct: purchased Chemicon International, Inc
The experiment is described as follows: In Vitro Solid Phase Purified αcβ5 Binding Assay (vitronectin/αVβ5). The following applies: vitronectin binding to immobilized purified human αVβ5, mean ± spread. In outline: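 Purified human integrin immobilized at 1 μg/ml in Tris buffer with Ca2+, Mg2+, Mn2+ and NaCl, then BSA-blocked. Compounds added just before 2 nM vitronectin, 3 h at 37 °C. Bound vitronectin detected by anti-vitronectin antibody with biotin/peroxidase (ABC) detection at 490 nm.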

For a further experiment, the target named is GP IIb/IIIa (Homo sapiens, UniProt P05106+P08514). As to the kind of experiment: In Vitro Solid Phase Purified GP IIb/IIIa Binding Assay (biotinylated fibrinogen). Conditions: biotinylated fibrinogen binding to immobilized purified GP IIb/IIIa, mean ± spread. A digest of the protocol:
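Purified GP IIb/IIIa coated overnight at 4° C, blocked with 5% BSA, then incubated with test compound and biotinylated fibrinogen for 2-4 h at RT in modified Tyrodes buffer. Bound fibrinogen detected with avidin-biotin HRP complex and o-phenylenediamine/H2O2 (citrate/phosphate pH 5.3), stopped with 2 N H2SO4.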

The target of another experiment is T2, Human αvβ3 (Homo sapiens, UniProt P05106+P06756).
T2 construct: purchased Chemicon International Inc., Temecula, Calif
T2 sequence (P06756 31-889 limits assumed): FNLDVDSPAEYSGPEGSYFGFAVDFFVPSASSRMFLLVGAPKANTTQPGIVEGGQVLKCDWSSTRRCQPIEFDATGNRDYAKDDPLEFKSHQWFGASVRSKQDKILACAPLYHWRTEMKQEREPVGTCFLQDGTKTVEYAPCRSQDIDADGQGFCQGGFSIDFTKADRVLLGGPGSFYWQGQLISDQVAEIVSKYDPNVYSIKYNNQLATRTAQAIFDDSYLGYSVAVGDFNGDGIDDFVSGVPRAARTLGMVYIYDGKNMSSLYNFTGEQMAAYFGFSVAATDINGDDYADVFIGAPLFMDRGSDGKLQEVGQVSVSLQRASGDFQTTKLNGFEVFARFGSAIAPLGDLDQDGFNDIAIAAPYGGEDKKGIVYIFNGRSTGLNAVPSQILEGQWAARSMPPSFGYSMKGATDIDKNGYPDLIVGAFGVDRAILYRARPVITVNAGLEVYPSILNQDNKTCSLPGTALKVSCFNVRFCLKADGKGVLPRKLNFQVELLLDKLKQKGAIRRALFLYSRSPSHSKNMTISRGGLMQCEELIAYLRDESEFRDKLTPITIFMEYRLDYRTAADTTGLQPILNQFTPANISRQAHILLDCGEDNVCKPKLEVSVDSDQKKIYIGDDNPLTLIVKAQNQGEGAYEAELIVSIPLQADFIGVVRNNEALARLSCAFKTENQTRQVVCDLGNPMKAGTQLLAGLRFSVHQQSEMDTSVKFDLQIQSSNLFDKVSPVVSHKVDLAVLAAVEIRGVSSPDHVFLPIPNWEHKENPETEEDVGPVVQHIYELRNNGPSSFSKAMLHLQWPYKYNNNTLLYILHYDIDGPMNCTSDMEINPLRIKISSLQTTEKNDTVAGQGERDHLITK
T2 sequence (P06756 891-1048 partner limits assumed): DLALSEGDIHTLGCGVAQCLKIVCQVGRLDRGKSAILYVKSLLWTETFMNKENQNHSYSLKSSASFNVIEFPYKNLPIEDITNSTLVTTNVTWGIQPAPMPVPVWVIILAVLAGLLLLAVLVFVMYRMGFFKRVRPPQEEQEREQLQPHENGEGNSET
T2 sequence (P05106 27-788): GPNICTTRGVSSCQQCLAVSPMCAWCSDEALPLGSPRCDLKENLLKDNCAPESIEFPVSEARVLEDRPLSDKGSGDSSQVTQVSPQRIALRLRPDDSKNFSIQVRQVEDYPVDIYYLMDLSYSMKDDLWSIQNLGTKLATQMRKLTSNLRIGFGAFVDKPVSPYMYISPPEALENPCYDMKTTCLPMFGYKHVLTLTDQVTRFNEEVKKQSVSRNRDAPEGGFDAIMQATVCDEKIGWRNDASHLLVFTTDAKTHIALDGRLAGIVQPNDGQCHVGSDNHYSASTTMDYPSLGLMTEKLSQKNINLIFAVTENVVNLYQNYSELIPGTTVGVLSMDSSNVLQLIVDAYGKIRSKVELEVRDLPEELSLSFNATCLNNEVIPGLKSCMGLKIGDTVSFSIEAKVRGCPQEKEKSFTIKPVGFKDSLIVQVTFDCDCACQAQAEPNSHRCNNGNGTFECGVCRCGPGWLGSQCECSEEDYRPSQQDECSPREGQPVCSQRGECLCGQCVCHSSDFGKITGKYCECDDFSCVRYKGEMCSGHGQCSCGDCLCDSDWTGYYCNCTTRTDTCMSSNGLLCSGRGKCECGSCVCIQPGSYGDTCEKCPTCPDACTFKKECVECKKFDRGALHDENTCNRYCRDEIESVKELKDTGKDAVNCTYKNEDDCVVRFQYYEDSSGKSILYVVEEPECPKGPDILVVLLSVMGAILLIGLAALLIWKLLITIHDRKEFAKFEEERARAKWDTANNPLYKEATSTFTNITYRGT
The experiment is described as follows: In Vitro Solid Phase Purified αvβ3 Binding Assay (vitronectin/αvβ3). The following applies: vitronectin binding to immobilized purified human αvβ3, mean ± spread. A digest of the protocol: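 Purified human αvβ3 immobilized at 1 μg/ml in Tris buffer with Ca, Mg and Mn; compounds competed with 2 nM vitronectin for 3 h at 37 °C. Bound vitronectin detected by anti-vitronectin antibody and peroxidase ABC, absorbance at 490 nm.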

Results on 24 compounds are retold here after patent publication US7879881B2, “Piperidinyl compounds that selectively bind integrins” (Janssen Pharmaceutica NV, priority 2002, dated 2011).

Read-outs that look alike come from different tables or passages of the source.

Sequence of GP IIb/IIIa (P08514 32-887 limits assumed): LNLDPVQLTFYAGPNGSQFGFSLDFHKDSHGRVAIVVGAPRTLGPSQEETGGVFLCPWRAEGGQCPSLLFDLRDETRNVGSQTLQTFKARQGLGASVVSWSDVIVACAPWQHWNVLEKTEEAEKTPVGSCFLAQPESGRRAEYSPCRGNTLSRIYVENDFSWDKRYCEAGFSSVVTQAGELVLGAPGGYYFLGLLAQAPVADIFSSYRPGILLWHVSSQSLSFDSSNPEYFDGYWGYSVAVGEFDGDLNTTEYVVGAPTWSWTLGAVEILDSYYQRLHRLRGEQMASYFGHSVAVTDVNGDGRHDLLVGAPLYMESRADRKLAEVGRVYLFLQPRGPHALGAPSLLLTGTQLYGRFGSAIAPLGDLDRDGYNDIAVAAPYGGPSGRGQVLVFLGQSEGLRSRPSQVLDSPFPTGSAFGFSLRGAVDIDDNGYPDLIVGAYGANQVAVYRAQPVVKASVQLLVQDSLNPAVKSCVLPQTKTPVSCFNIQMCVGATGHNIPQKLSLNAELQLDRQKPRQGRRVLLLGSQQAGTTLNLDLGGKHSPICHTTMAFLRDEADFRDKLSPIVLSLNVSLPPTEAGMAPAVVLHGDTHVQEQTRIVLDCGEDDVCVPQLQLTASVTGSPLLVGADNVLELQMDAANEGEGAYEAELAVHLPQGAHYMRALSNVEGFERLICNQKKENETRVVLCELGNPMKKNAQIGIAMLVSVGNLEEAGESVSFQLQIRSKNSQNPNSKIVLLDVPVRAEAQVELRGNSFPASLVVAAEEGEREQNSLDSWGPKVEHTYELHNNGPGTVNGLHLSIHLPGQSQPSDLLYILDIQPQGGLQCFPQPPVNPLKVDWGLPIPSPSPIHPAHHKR
Sequence of GP IIb/IIIa (P08514 891-1039 partner limits assumed): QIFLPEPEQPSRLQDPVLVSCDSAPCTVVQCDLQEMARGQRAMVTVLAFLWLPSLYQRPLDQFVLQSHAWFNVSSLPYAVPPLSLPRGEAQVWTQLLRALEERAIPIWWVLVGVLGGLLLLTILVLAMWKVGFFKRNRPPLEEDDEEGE
Sequence of GP IIb/IIIa (P05106 27-788): as the sequence (P05106 27-788) above
T1 sequence (P06756 31-889 limits assumed): as the sequence (P06756 31-889 limits assumed) above
T1 sequence (P06756 891-1048 partner limits assumed): as the sequence (P06756 891-1048 partner limits assumed) above
T1 sequence (P18084 24-799): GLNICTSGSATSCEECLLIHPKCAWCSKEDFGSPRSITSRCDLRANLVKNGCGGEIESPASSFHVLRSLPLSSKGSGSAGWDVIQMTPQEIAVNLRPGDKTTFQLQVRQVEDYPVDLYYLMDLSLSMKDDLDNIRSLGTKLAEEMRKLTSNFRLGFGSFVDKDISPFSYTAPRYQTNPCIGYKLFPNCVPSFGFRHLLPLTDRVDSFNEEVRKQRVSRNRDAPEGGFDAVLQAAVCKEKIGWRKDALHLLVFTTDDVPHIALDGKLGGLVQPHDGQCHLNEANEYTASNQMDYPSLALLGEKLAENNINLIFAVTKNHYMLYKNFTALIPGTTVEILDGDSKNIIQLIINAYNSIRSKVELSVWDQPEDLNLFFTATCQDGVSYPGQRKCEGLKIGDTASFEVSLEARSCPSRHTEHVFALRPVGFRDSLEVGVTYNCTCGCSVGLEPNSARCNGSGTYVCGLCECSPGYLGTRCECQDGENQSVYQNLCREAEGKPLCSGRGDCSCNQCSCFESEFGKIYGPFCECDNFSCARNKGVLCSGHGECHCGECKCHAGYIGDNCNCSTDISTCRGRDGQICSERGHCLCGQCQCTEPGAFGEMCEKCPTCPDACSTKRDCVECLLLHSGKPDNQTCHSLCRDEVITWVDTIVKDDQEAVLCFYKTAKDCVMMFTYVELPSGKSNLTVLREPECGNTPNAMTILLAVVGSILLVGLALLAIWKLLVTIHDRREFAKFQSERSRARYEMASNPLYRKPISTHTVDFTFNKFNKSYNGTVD

In the case of `COc1cc(C(CC(=O)O)CC2CCN(C(=O)CCc3ccc4c(n3)NCCC4)CC2)ccc1O` (stereo not drawn) [Cpd 76a], the IC50 was found to be 0.0169 ± 0.0021 µM on human purified αVβ5 (read-out: αvβ5 IC50), 10.4 µM at GP IIb/IIIa (read-out: αIIbβ3 IC50) and 0.0011 ± 0.0002 µM at Human αvβ3 (read-out: αvβ3IC50).

Turning to `O=C(O)CCCC1CCN(C(=O)CCc2ccc3c(n2)NCCC3)CC1` [Cpd 61], the IC50 on human purified αVβ5 (read-out: αvβ5 IC50) stood at 0.0253 ± 0.0073 µM; at GP IIb/IIIa (read-out: αIIbβ3 IC50) it was 37.5 ± 31.6 µM; at Human αvβ3 (read-out: αvβ3IC50), 0.0045 ± 0.0007 µM.

`CC(C)(C)OC(=O)CCCC1CCN(C(=O)CCc2ccc3c(n2)NCCC3)CC1` [Cpd 70, 4-[1-(3-5,6,7,8-Tetrahydro-[1,8]naphthyridin-2-yl-propionyl)-piperidin-4-yl]-butyric acid tert-butyl ester]: the IC50 was more than 1 µM on human purified αVβ5 (read-out: αvβ5 IC50), more than 50 µM at GP IIb/IIIa (read-out: αIIbβ3 IC50) and more than 0.5 µM on Human αvβ3 (read-out: αvβ3IC50).

As to `COc1ccc(C(CCC2CCN(C(=O)CCc3ccc4c(n3)NCCC4)CC2)CC(=O)O)cn1` (single isomer, unassigned) [Cpd 21b, 6-methoxy-β-[2-[1-[1-oxo-3-(5,6,7,8-tetrahydro-1,8-naphthyridin-2-yl)propyl]-4-piperidinyl]ethyl]-3-pyridinepropanoic acid], the IC50 at human purified αVβ5 (read-out: αvβ5 IC50) was determined as 0.28 µM; at GP IIb/IIIa (read-out: αIIbβ3 IC50), 1.97 µM; on Human αvβ3 (read-out: αvβ3IC50), 0.405 µM.

Regarding `CC1=NCC(C(CC(=O)O)CC2CCN(C(=O)CCc3ccc4c(n3)NCCC4)CC2)CN1` (stereo not drawn) [Cpd 18, 1,4,5,6-tetrahydro-2-methyl-β-[[1-[1-oxo-3-(5,6,7,8-tetrahydro-1,8-naphthyridin-2-yl)propyl]-4-piperidinyl]methyl]-5-pyrimidinepropanoic acid], the IC50 on human purified αVβ5 (read-out: αvβ5 IC50) was more than 5 µM; at GP IIb/IIIa (read-out: αIIbβ3 IC50), more than 50 µM; on Human αvβ3 (read-out: αvβ3IC50), more than 5 µM.

As for `COc1ccc(C(CC(=O)O)CC2CCN(C(=O)CCc3ccc4c(n3)NCCC4)CC2)cn1` (single isomer, unassigned) [Cpd 28b, 6-methoxy-β-[[1-[1-oxo-3-(5,6,7,8-tetrahydro-1,8-naphthyridin-2-yl)propyl]-4-piperidinyl]methyl]-3-pyridinepropanoic acid], the IC50 is 0.126 ± 0.0448 µM at human purified αVβ5 (read-out: αvβ5 IC50), 24.3 µM at GP IIb/IIIa (read-out: αIIbβ3 IC50) and 0.0208 ± 0.0053 µM on Human αvβ3 (read-out: αvβ3IC50).

As for `CN(C)c1cccc(C(CC(=O)O)CC2CCN(C(=O)CCc3ccc4c(n3)NCCC4)CC2)c1` (racemic) [Cpd 75], the IC50 was 0.0419 ± 0.0052 µM on human purified αVβ5 (read-out: αvβ5 IC50), more than 50 µM at GP IIb/IIIa (read-out: αIIbβ3 IC50) and 0.0053 ± 0.001 µM at Human αvβ3 (read-out: αvβ3IC50).

Consider `O=C(O)CC(CC1CCN(CCCc2ccc3c(n2)NCCC3)CC1)c1cccc(F)c1` (racemic) [Cpd 81, 3-(3-Fluoro-phenyl)-4-[1-(3-5,6,7,8-tetrahydro-[1,8]naphthyridin-2-yl-propyl]-piperidin-4-yl]-butyric acid], for which the IC50 on human purified αVβ5 (read-out: αvβ5 IC50) amounted to 0.0101 ± 0.0017 µM; on GP IIb/IIIa (read-out: αIIbβ3 IC50), 22.7 µM; on Human αvβ3 (read-out: αvβ3IC50), 0.0067 ± 0.0002 µM.

With `O=C(O)CC(CC1CCN(C(=O)CCc2ccc3c(n2)NCCC3)CC1)c1ccc2c(c1)OCCO2` (racemic) [Cpd 65], the IC50 on human purified αVβ5 (read-out: αvβ5 IC50) worked out at 0.0346 ± 0.0002 µM; on GP IIb/IIIa (read-out: αIIbβ3 IC50), 3.84 µM; at Human αvβ3 (read-out: αvβ3IC50) it was 0.0008 µM.

With `O=C(O)CC(c1ccc2c(c1)OCO2)C1CCN(C(=O)CCc2ccc3c(n2)NCCC3)CC1` (stereo not drawn) [Cpd 14, β-(1,3-benzodioxol-5-yl)-1-[1-oxo-3-(5,6,7,8-tetrahydro-1,8-naphthyridin-2-yl)propyl]-4-piperidinepropanoic acid], the figures for the IC50 on human purified αVβ5 (read-out: αvβ5 IC50), on GP IIb/IIIa (read-out: αIIbβ3 IC50) and on Human αvβ3 (read-out: αvβ3IC50) were 0.108 ± 0.034 µM, 5.04 µM and 0.0361 ± 0.0001 µM, respectively.

As for `COc1ccc(C(CCC2CCN(C(=O)CCc3ccc4c(n3)NCCC4)CC2)CC(=O)O)cn1` (single isomer, unassigned) [Cpd 21a, 6-methoxy-β-[2-[1-[1-oxo-3-(5,6,7,8-tetrahydro-1,8-naphthyridin-2-yl)propyl]-4-piperidinyl]ethyl]-3-pyridinepropanoic acid], the IC50 on human purified αVβ5 (read-out: αvβ5 IC50) amounted to 0.841 ± 0.405 µM; at GP IIb/IIIa (read-out: αIIbβ3 IC50), 5.31 µM; on Human αvβ3 (read-out: αvβ3IC50) it was 0.0213 ± 0.0019 µM.

In the case of `O=C(O)CC(C1CCN(C(=O)CCCc2ccc3c(n2)NCCC3)CC1)C1CNc2ccccc2C1` (stereo not drawn) [Cpd 5, 1,2,3,4-Tetrahydro-β-[1-[1-oxo-4-(5,6,7,8-tetrahydro-1,8-naphthyridin-2-yl)butyl]-4-piperidinyl]-3-quinolinepropanoic acid], the IC50 is 0.261 ± 0.0569 µM on human purified αVβ5 (αvβ5 IC50 (uM)), 14.8 ± 0.68 µM on GP IIb/IIIa (αIIbβ3 IC50 (uM)) and 0.0037 ± 0.0014 µM on Human αvβ3 (αvβ3IC50 (uM)).

In the case of `CNc1cccc(C(CC(=O)O)CC2CCN(C(=O)CCc3ccc4c(n3)NCCC4)CC2)c1` (racemic) [Cpd 79, 3-(3-Methylamino-phenyl)-4-[1-(3-5,6,7,8-tetrahydro-[1,8]naphthyridin-2-yl-propionyl)-piperidin-4-yl]-butyric acid], the IC50 at human purified αVβ5 (read-out: αvβ5 IC50) was 0.025 ± 0.006 µM; on GP IIb/IIIa (read-out: αIIbβ3 IC50), 40.2 µM; on Human αvβ3 (read-out: αvβ3IC50) it was 0.0035 ± 0.0015 µM.

For the compound `CCOC(=O)CCCC1CCN(C(=O)CCc2ccc3c(n2)NCCC3)CC1` [Cpd 68, 4-[1-(3-5,6,7,8-Tetrahydro-[1,8]naphthyridin-2-yl-propionyl)-piperidin-4-yl]-butyric acid ethyl ester], the IC50 was more than 1 µM at human purified αVβ5 (read-out: αvβ5 IC50), 35.6 µM at GP IIb/IIIa (read-out: αIIbβ3 IC50) and 0.413 µM at Human αvβ3 (read-out: αvβ3IC50).

In the case of `O=C(O)CC(CCC1CCN(C(=O)CCCNc2ccccn2)CC1)c1ccc2c(c1)OCO2` (stereo not drawn) [Cpd 23, β-(1,3-benzodioxol-5-yl)-1-[1-oxo-4-(2-pyridinylamino)butyl]-4-piperidinepentanoic acid], the IC50 on human purified αVβ5 (read-out: αvβ5 IC50) is 2.01 µM; at GP IIb/IIIa (read-out: αIIbβ3 IC50), 4.93 µM; on Human αvβ3 (read-out: αvβ3IC50) it was 0.298 ± 0.146 µM.

In the case of `O=C(O)CC(CC1CCN(C(=O)CCc2ccc3c(n2)NCCC3)CC1)c1ccc2c(c1)OCO2` (stereo not drawn) [Cpd 11, β-(1,3-Benzodioxol-5-yl)-1-[1-oxo-3-(5,6,7,8-tetrahydro-1,8-naphthyridin-2-yl)propyl]-4-piperidinebutanoic acid], the IC50 on human purified αVβ5 (read-out: αvβ5 IC50) stood at 0.0023 ± 0.0009 µM; at GP IIb/IIIa (read-out: αIIbβ3 IC50) it was 2.52 ± 0.3 µM; at Human αvβ3 (read-out: αvβ3IC50), 0.0011 ± 0.0002 µM.

For “β-[2-[1-[1-oxo-3-(5,6,7,8-tetrahydro-1,8-naphthyridin-2-yl)propyl]-4-piperidinyl]ethyl]-3-quinolinepropanoic acid [Cpd 52]”, the IC50 at human purified αVβ5 (read-out: αvβ5 IC50) was more than 50 µM; on GP IIb/IIIa (read-out: αIIbβ3 IC50), 0.57 ± 0.04 µM; at Human αvβ3 (read-out: αvβ3IC50), 0.0064 ± 0.0014 µM.

With `O=C(O)CC(CC1CCN(C(=O)CCc2ccc3c(n2)NCCC3)CC1)C1CNc2ccccc2C1` (single isomer, unassigned) [Cpd 19-4, 1,2,3,4-tetrahydro-β-[[1-[1-oxo-3-(5,6,7,8-tetrahydro-1,8-naphthyridin-2-yl)propyl]-4-piperidinyl]methyl]-3-quinolinepropanoic acid], the IC50 on human purified αVβ5 (read-out: αvβ5 IC50) was determined as 0.0075 ± 0.0018 µM; on GP IIb/IIIa (read-out: αIIbβ3 IC50), 4.86 µM; on Human αvβ3 (read-out: αvβ3IC50) it was 0.0013 ± 0.0007 µM.

For `O=C(O)CC(c1ccc2c(c1)OCO2)C1CCN(C(=O)CCCc2ccc3c(n2)NCCC3)CC1` (stereo not drawn) [Cpd 15, β-(1,3-benzodioxol-5-yl)-1-[1-oxo-4-(5,6,7,8-tetrahydro-1,8-naphthyridin-2-yl)butyl]-4-piperidinepropanoic acid], the IC50 on human purified αVβ5 (read-out: αvβ5 IC50) amounted to 0.0334 ± 0.0063 µM; at GP IIb/IIIa (read-out: αIIbβ3 IC50), 4.03 ± 0.43 µM; at Human αvβ3 (read-out: αvβ3IC50) it was 0.0019 ± 0.0002 µM.

As for `O=C(O)CCC1CCN(C(=O)Cc2cccc(NC3=NCCCN3)c2)CC1` [Cpd 1, 1-[[3-[(1,4,5,6-Tetrahydro-2-pyrimidinyl)amino]phenyl]acetyl]-4-piperidinepropanoic acid], the IC50 is more than 5 µM at human purified αVβ5 (read-out: αvβ5 IC50), 4.33 ± 0.15 µM on GP IIb/IIIa (read-out: αIIbβ3 IC50) and 0.056 ± 0.007 µM on Human αvβ3 (read-out: αvβ3IC50).

Turning to `O=C(O)CC(CC1CCN(C(=O)CCCc2ccc3c(n2)NCCC3)CC1)c1cc(F)cc(F)c1` (stereo not drawn) [Cpd 38, β-(3,5-difluorophenyl)-1-[1-oxo-4-(5,6,7,8-tetrahydro-1,8-naphthyridin-2-yl)butyl]-4-piperidinebutanoic acid], the IC50 at human purified αVβ5 (read-out: αvβ5 IC50) was 2.11 µM; on GP IIb/IIIa (read-out: αIIbβ3 IC50) it was more than 50 µM; at Human αvβ3 (read-out: αvβ3IC50) it was 0.484 µM.

With `NC(=O)CC(CC1CCN(C(=O)CCc2ccc3c(n2)NCCC3)CC1)c1cccc(F)c1` (racemic) [Cpd 64, 3-(3-Fluoro-phenyl)-4-[1-(3-5,6,7,8-tetrahydro-[1,8]naphthyridin-2-yl-propionyl)-piperidin-4-yl]-butyramide], the IC50 was 0.147 ± 0.0847 µM on human purified αVβ5 (read-out: αvβ5 IC50), more than 50 µM on GP IIb/IIIa (read-out: αIIbβ3 IC50) and 0.0615 ± 0.0055 µM at Human αvβ3 (read-out: αvβ3IC50).

On to `CC(C)OC(=O)CCCC1CCN(C(=O)CCc2ccc3c(n2)NCCC3)CC1` [Cpd 69, 4-[1-(3-5,6,7,8-Tetrahydro-[1,8]naphthyridin-2-yl-propionyl)-piperidin-4-yl]-butyric acid isopropyl ester], for which the IC50 is more than 1 µM on human purified αVβ5 (read-out: αvβ5 IC50), more than 50 µM on GP IIb/IIIa (read-out: αIIbβ3 IC50) and more than 0.5 µM at Human αvβ3 (read-out: αvβ3IC50).

Take `O=C(O)CC(CC1CCN(C(=O)CCc2ccc3c(n2)NCCC3)CC1)c1ccc2c(c1)CCO2` (stereo not drawn) [Cpd 46, β-(2,3-dihydro-5-benzofuranyl)-1-[1-oxo-3-(5,6,7,8-tetrahydro-1,8-naphthyridin-2-yl)propyl]-4-piperidinebutanoic acid]: the IC50 was found to be 0.0659 ± 0.0171 µM on human purified αVβ5 (read-out: αvβ5 IC50), 13.6 ± 1.33 µM at GP IIb/IIIa (read-out: αIIbβ3 IC50) and 0.0035 ± 0.0006 µM on Human αvβ3 (read-out: αvβ3IC50).
